Laboratory results from US20030162834A1, “Natural physiologically active material effective on fish diseases and fish food containing the material” (priority 1998, published 2003).

Columns and labels:
Cryptocaryon irritans [1] = test: Trial 1: in vitro immersion of theronts in fatty acid seawater solutions; type: cell-based; conditions: 0.5 mM in seawater, 20 degrees centigrade; listed as C8
Procedure: (§1) For Cryptocaryon irritans, fatty acids having carbon number C2, C4 and C6-C10 were each dissolved in seawater at 0.5 mM concentration, and theronts of Cryptocaryon irritans were immersed in the seawater solutions. After 1 hour from the start of immersion, the efficacy of the fatty acids was investigated by counting the number of dead theronts. More than 200 individuals of parasites were transferred to each group.
(§2) For any of the groups, the trial was made under condition of 20 degrees centigrade.

[2] = tested on: parasites (Heterobothrium okamotoi, Cryptocaryon irritans); test: Trial 1: overall statements on efficacy of fatty acids against parasites; type: cell-based; conditions: Trial 1 summary; C12 at a low concentration, not the same condition
Procedure: Fatty acids having carbon number C2, C4 and C6-C10 were each dissolved in seawater at 1 mM concentration, and oncomiracidia of Heterobothrium okamotoi and larvae attaching to the gill were immersed in the seawater solutions. After 2 hours from the start of immersion, the efficacy of the fatty acids was investigated by counting the number of dead oncomiracidia and the number of larvae dropping down from the gill. More than 30 individuals of parasites were transferred to each group.
as §1, §2

Heterobothrium okamotoi [3] = test: Trial 3: oral octanoic acid, Heterobothrium okamotoi challenge trial on tiger puffer; type: in vivo; conditions: 2.5 g octanoic acid per 1 kg pellets
Procedure: Fish tested: Tiger puffer weighing approximately 133.6 g in average.
(§3) Trial groups: Two groups, i.e., an octanoic-acid added group in which fish were fed diets added with octanoic acid, and a control group in which fish were fed diets not added with octanoic acid. The feeding rate was 1% of fish weight/day for each group.
Trial diets: The diets added with octanoic acid were prepared by spraying 2.5 g of octanoic acid to 1 kg of commercially available pellets for tiger puffer. The control group fish were fed the commercially available pellets for tiger puffer.
Challenge trial: Each 12 pieces of fish (normal fish) from among a shoal of fish, in which no diseases such as Heterobothrium okamotoi infection were found, were put in a 100-liter water tank, and were fed the respective trial diets. After 7 days, 6 pieces of fish (infected fish), which had been infected in advance with approximately 100 individuals of Heterobothrium okamotoi, were added to each trial group. Then, bleeding was continued for 73 days while feeding the trial diets. In this trial, the parasites Heterobothrium okamotoi in the infected fish were in the stage of adult. After 30 days from adding the infected fish, 4 pieces of normal fish were sampled from each group, and the number of parasites attaching to the gill was counted. During the trial period, the water temperature was in the range of 16.5-20.9 degrees centigrade and the water was exchanged at 20 cycles/day.
Evaluation was made by comparing mortality of the fish in respective groups during the trial period, and by counting the number of parasites attaching to the gill of the infected fish in each group for investigation of the remedy efficacy and the infection preventable efficacy.

Cryptocaryon irritans [4] = test: Trial 4: oral octanoic acid, Cryptocaryon irritans challenge trial on red sea bream; type: in vivo; conditions: 5 g octanoic acid per 1 kg pellets
Procedure: Fish tested: Red sea bream weighing approximately 9.8 g in average.
Trial groups: Two groups, i.e., an octanoic-acid added group in which fish were fed diets added with octanoic acid, and a control group in which fish were fed diets not added with octanoic acid. The feeding rate was 3% of fish weight/day for each group.
Trial diets: The diets added with octanoic acid were prepared by spraying 5 g of octanoic acid to 1 kg of commercially available pellets for red sea bream. The control group fish were fed the commercially available pellets for red sea bream.
Challenge trial: Each 30 pieces of fish from among a shoal of fish, in which no diseases such as Cryptocaryon irritans infection were found, were put in a 100-liter water tank, and were fed the respective trial diets. After 5 days, approximately 2000 individuals of ([…] theronts) of Cryptocaryon irritans were put in each water tank to infect the fish while water flow was stopped for 1 hour. Then, bleeding was continued for 15 days. During the trial period, the water temperature was in the range of 22.5-23.2 degrees centigrade and the water was exchanged at 20 cycles/day.
Evaluation was made by sampling 5 pieces of fish from each group after 3 days from the start of the challenge, comparing the number of parasites attaching to the gill and the body surface of each infected fish, and comparing mortality of the fish during the trial period between the respective groups.

Heterobothrium okamotoi [5] = test: Trial 6: vitamin C enhancement trial on tiger puffer; type: in vivo; conditions: 5 g octanoic acid per 1 kg pellets (with or without 200 mg vitamin C per kg), oral, 15 days after first challenge
From the text: Fish tested: Tiger puffer weighing approximately 50.0 g in average.
as §3, with “Three” for “Two”, “acid, an octanoic-acid added/vitamin-C enhanced group in which fish were fed diets added with both octanoic acid and vitamin C,” for “acid,”, “2%” for “1%”
Trial diets: The diets added with octanoic acid were prepared by spraying 5 g of octanoic acid to 1 kg of commercially available pellets for tiger puffer. The diets added with both octanoic acid and vitamin C were prepared by spraying 200 mg of vitamin C, dissolved in water, to 1 kg of the above diets added with octanoic acid. The control group fish were fed the commercially available pellets for tiger puffer.
Challenge trial: Each 5 pieces of fish from among a shoal of fish, in which no diseases such as parasitic infections were found, were put in a 100-liter water tank, and were fed the respective trial diets. After 7 days, approximately 750 individuals of oncomiracidia of Heterobothrium okamotoi were put into each water tank to infect the fish while water flow was stopped for 1 hour. The infection procedure was repeated every other day 5 times in total under the same condition. […]

[6] = Trial 9: tolerance of tiger puffer to immersion in seawater containing octanoic acid; type: in vivo
From the text: Each group, i.e., 130 g of tiger puffer, was immersed in 2-liter seawater containing octanoic acid at 100 ppm, 200 ppm and 400 ppm, followed by observation.

CCCCCCCC(=O)O [octanoic acid]
emergence of dead theronts (Cryptocaryon irritans [1]): emerged earliest
efficacy against parasites [2]: most effective
number of parasites attaching to the normal fish after 30 days, versus control (Heterobothrium okamotoi [3]): apparently reduced
number of parasites (adults and larvae) attaching to infected fish survived at the end of the trial, versus control (Heterobothrium okamotoi [3]; 73 days): apparently reduced
numbers of parasites in normal fish survived at the end and fish died during the trial (Heterobothrium okamotoi [3]; 73 days): apparently reduced
adults attaching to each survived infected fish at the end of the trial (Heterobothrium okamotoi [3]; 73 days, approximately 100 at the start): approximately 27 individuals
survival rate of the infected fish at the end of the trial (Heterobothrium okamotoi [3]; 73 days, control 16.7%): 66.7%
survival rate of the normal fish (Heterobothrium okamotoi [3]; cohabitation with infected fish 73 days, control 0%): 75%
parasites on gill and body surface after 3 days from the challenge (Cryptocaryon irritans [4]): no parasites were found
parasites at the end of the trial (Cryptocaryon irritans [4]; 15 days): no parasites were found
fish mortality during the trial (Cryptocaryon irritans [4]; 15 days, control all dead at the 8-th day): no fish died
number of parasites attaching to the gill (Heterobothrium okamotoi [5]): apparently fewer
condition when returned to seawater ([6]; after immersion at 100 ppm): no abnormality
time to restore to a normal condition after return to seawater ([6]; after immersion at 200 ppm): approximately 30 minutes
time to restore to a normal condition after return to seawater ([6]; after immersion at 400 ppm, almost dying condition): approximately 60 minutes
observation of fish after 60 minutes ([6]; immersion, 100 ppm octanoic acid in seawater): a swimming activity of the fish was slightly lowered, but no abnormality was found in the fish
time at which fish began to lie down ([6]; immersion, 200 ppm): 60 min
time until swimming activity was apparently lowered ([6]; immersion, 200 ppm): 30 min
time at which fish became almost dying ([6]; immersion, 400 ppm): 9 min
time at which fish began to lie down ([6]; immersion, 400 ppm): 3 min
observation of fish returned to seawater ([6]; observed for 7 days after immersion): no abnormality was found
